# Patent US6392083B1, “Process for producing salts of cyanobenzylamines” (Showa Denko K.K., priority 1999, dated 2002)
# How the values were obtained:
# [1] = Bulk density measured with Powder-tester Type PT-N; type: physicochemical; conditions: dried salt powder; Powder-tester Type PT-N (Hosokawa Micron); hydrochloride
# Description: The bulk density was measured with a Powder-tester Type PT-N (product of Hosokawa Micron).
# [2] = Excerpt: These two compounds are difficult to separate through distillation due to the small difference between their respective boiling points.
bulk density [1] [g/mL],Compound,water solubility [2]
0.2,"Cl.N#Cc1ccc(CN)cc1 [Comparative Example, p-Cyanobenzylamine hydrochloride, reference compound]",
0.3,"Cl.N#Cc1ccc(CN)cc1 [Example 1, p-cyanobenzylamine hydrochloride]",
,Cl.N#Cc1ccc(CN)cc1 [p-cyanobenzylamine hydrochloride],much lower than that of p-xylylenediamine hydrochloride
0.5,"Cl.N#Cc1ccc(CN)cc1 [Example 7, p-cyanobenzylamine hydrochloride]",
